{
  "source": "patent US6617360B1",
  "about": "“Medical treatment” (Knoll Aktiengesellschaft, priority 1996, dated 2003)",
  "key": {"[1]": {"system": "L6 muscle cells", "experiment": "[3H]-2-deoxyglucose (2DG) uptake in L6 muscle cells with and without added insulin (Study 1)", "assay_type": "cell-based", "experimental": "L6 Muscle cells were obtained from the European Culture Collection (Porton Down) and were used at passages 7-11. Cells were maintained in standard tissue culture medium DMEM, and glucose uptake was assessed using [^3H]-2-deoxyglucose (2DG) with and without the presence of added insulin (10^−8 M) as has been previously described (Walker P S et al, Glucose transport activity in L6 muscle cells is regulated by the coordinate control of subcellular glucose transporter distribution, biosynthesis, and mRNA transcription, JBC, 1990;265(3), 1516-1523, and Kilp A et al, Stimulation of hexose transport by metformin in L6 muscle cells in culture, Endocrinology, 1992;130(5), 2535-2544).\nUptake of 2DG was expressed as the percentage change compared with control. Values are presented as mean±SEM of sets of 4 wells per experiment. Differences between sets of wells were evaluated by Student's t test, probability values p<0.05 were considered to be significant. […] In the presence of added insulin (10^−8 M), significant increases in 2DG uptake were observed following 24 hour incubation with the compound of formula I in which R1 and R2 are both methyl (sibutramine hydrochloride monohydrate) at 10^−8 M (from 149.9±4.3 to165.3±2.6), the compound of formula I in which R1 is methyl and R2 is H at 10^−7 M (from 147.3±3.0 to 160.7±4.5), and the compound of formula I in which R1 and R2 are both H, at 10^−7 M and 10^−6 M (from 149.1±3.9 to 161.8±3.3 and 165.2±3.6 respectively)."}, "[2]": {"system": "ob/ob mice (Aston Strain)", "experiment": "Chronic administration (10 mg/kg po) and withdrawal in obese ob/ob mice: plasma glucose, plasma insulin, body weight, food intake (Study 2)", "assay_type": "in vivo", "experimental": "Studies were performed in obese ob/ob mice (Aston Strain) which are a model of severe insulin resistance and are also hyperglycaemic. The derivation and characteristics of this animal model have been previously described (Flatt P R, Bailey C J, Development of glucose intolerance and impaired plasma insulin response to glucose in obese hyperglycaemic (ob/ob) mice, Horm Metab Res 1981;13:556-560, and Bailey C J et al, Influence of genetic background and age on the expression of the obese hyperglycaemic syndrome in Aston ob/ob mice, Int J Obesity, 1982;6:11-21).\nThe ob/ob mice were individually housed in polypropylene cages at a temperature of 21±1° C. and 55% humidity. The mice had free access to a standard rat and mouse pelleted diet (Compound Rat and Mouse Diet, Special Diet Services, Witham, Essex) and tap water at all times. Animals were maintained on a reverse phase light-dark cycle. Lights were off between 09.00 h and 17.00 h in the acute experiment and between 10.00 h and 18.00 h in the chronic experiment. During this time the laboratory was illuminated by red lamps. Animals were acclimatised to these conditions for at least two weeks before experimentation.\nAll animals were given deionised water (at the start of the dark period) for 7 days. Body weight and food intake were measured daily. Blood samples were taken immediately before daily administration of vehicle (deionised water 10 ml/kg po) or compound of formula I in which R1 and R2 are both methyl (sibutramine hydrochloride monohydrate; 10 mg/kg po) on day 1 (baseline) and after 14 and 28 days of treatment (on day 15 and day 29 respectively). Blood samples were also taken 14 days following withdrawal of the sibutramine hydrochloride monohydrate (on day 43 of the study). Plasma glucose was determined by a glucose oxidase procedure (Analox GM7) and plasma insulin determined by radioimmunoassay (Amerlex, Amersham)."}, "[3]": {"system": "ob/ob mice (Aston Strain)", "experiment": "6 weeks of treatment (5 mg/kg/day po) and 6 weeks of withdrawal in young ob/ob mice: body weight, plasma insulin, ip glucose tolerance test, insulin hypoglycaemia test (Study 3)", "assay_type": "in vivo", "experimental": "Young ob/ob mice (Aston Strain) were randomised into 3 groups as follows: control, receiving placebo treatment (phosphate buffered saline 2.5 ml/kg/day po); sibutramine hydrochloride monohydrate-treated (5 mg/kg/day po); and pair-fed control, supplied with the same daily food intake as that consumed by the sibutramine hydrochloride monohydrate-treated group on the previous day. There was a 1 week run-in period followed by 6 weeks of treatment. Body weight and food intake were monitored every 1 to 2 days, and blood samples for plasma glucose and insulin were taken from the tail vein at weekly intervals in the non-fasted state at 11 a.m. An ip glucose tolerance test (D-glucose, 2 g/kg in 40% w/v solution in distilled water) and an insulin hypoglycaemia test (Actrapid, Novo-Nordisk, 2.5 u/kg ip) were conducted after 5 weeks of treatment. Food was withheld only for the duration of these tests (approx. 4 hours). The basal blood samples and the test procedures were undertaken 18 hours after the last treatment administration.\nTreatment was stopped after 6 weeks, and the mice were monitored for the next 6 weeks. The pair-fed mice continued to be pair-fed with respect to the sibutramine hydrochloride monohydrate withdrawal group. A second insulin hypoglycaemia test was conducted 4 weeks after treatment was stopped. Plasma glucose was determined by an automated glucose oxidase procedure (Beckman) and plasma insulin determined by radioimmunnoassay (Amerlex, Amersham)."}, "[4]": {"settings": "added insulin 10^−8 M, 24 hour incubation, compound 10^−7 M, insulin alone 147.3±3.0 (R1 methyl, R2 H) or 149.1±3.9 (both H), mean±SEM"}, "[5]": {"settings": "compound group, day 1 of study, prior to treatment (baseline), mean ± SEM"}, "[6]": {"settings": "6 week withdrawal period after 5 mg/kg/day po, vs vehicle treated group, for almost all of the period"}},
  "data": [
    {"smiles": "CC(C)CC(N)C1(c2ccc(Cl)cc2)CCC1", "note": "(stereo not drawn) [1-[1-(4-chlorophenyl)cyclobutyl]-3-methylbutylamine]", "values": [
      {"measurement": "Uptake of 2DG, percentage change compared with control", "setting": "[1]; absence of added insulin, 24 hours incubation, compound 10^−6 M, control 100±2.1, mean±SEM", "value": "134±7.3", "unit": "%"},
      {"measurement": "Uptake of 2DG, percentage change compared with control", "setting": "[1]; absence of added insulin, 24 hours incubation, compound 10^−7 M, control 100±2.1, mean±SEM", "value": "123.9±4.3", "unit": "%"},
      {"measurement": "Uptake of 2DG, percentage change compared with control", "setting": "[1]; absence of added insulin, 24 hours incubation, compound 10^−8 M, control 100±2.1, mean±SEM", "value": "116.9±3.8", "unit": "%"},
      {"measurement": "Uptake of 2DG, percentage change compared with control", "setting": "[1]; added insulin 10^−8 M, 24 hour incubation, compound 10^−6 M, insulin alone 149.1±3.9, mean±SEM", "value": "165.2±3.6", "unit": "%"},
      {"measurement": "Uptake of 2DG, percentage change compared with control", "setting": "[1]; [4]", "value": "161.8±3.3", "unit": "%"}
    ]},
    {"smiles": "CC(C)CC(N(C)C)C1(c2ccc(Cl)cc2)CCC1.Cl.O", "note": "(stereo not drawn) [sibutramine hydrochloride monohydrate, N,N-dimethyl-1-[1-(4-chlorophenyl)cyclobutyl]-3-methylbutylamine hydrochloride monohydrate]", "values": [
      {"measurement": "Plasma glucose (in words)", "setting": "[2]; 10 mg/kg po daily, after 14 and 28 days of treatment, significant difference from control at day 28 (P<0.01)", "value": "fell"},
      {"measurement": "Plasma glucose", "setting": "[2]; 10 mg/kg po daily, day 15 of study (14 days of treatment), vehicle 21.7 ± 0.9, mean ± SEM", "value": "19.0 ± 0.6", "unit": "mmol/L"},
      {"measurement": "Plasma insulin", "setting": "[2]; 10 mg/kg po daily, day 15 of study (14 days of treatment), vehicle 49.7 ± 3.5, mean ± SEM", "value": "45.1 ± 2.6", "unit": "ng/mL"},
      {"measurement": "Plasma glucose", "setting": "[2]; 10 mg/kg po daily, day 29 of study (28 days of treatment), vehicle 26.0 ± 1.4, **P < 0.01 vs vehicle, mean ± SEM", "value": "15.8 ± 0.7** mmol/l"},
      {"measurement": "Plasma insulin", "setting": "[2]; 10 mg/kg po daily, day 29 of study (28 days of treatment), vehicle 46.2 ± 4.5, mean ± SEM", "value": "35.1 ± 2.7", "unit": "ng/mL"},
      {"measurement": "Plasma insulin (in words)", "setting": "[2]; 10 mg/kg po daily, tended to fall on treatment and increased on withdrawal", "value": "No significant changes"},
      {"measurement": "Body weight (in words)", "setting": "[2]; 10 mg/kg po daily, vs vehicle", "value": "No significant changes"},
      {"measurement": "Food intake (in words)", "setting": "[2]; 10 mg/kg po daily, vs vehicle", "value": "No significant changes"},
      {"measurement": "Plasma glucose (in words)", "setting": "[2]; after 14 days of drug withdrawal, rose to control values", "value": "rose significantly"},
      {"measurement": "Plasma glucose", "setting": "[2]; [5]", "value": "24.3 ± 0.6", "unit": "mmol/L"},
      {"measurement": "Plasma insulin", "setting": "[2]; [5]", "value": "92.0 ± 4.5", "unit": "ng/mL"},
      {"measurement": "Plasma glucose", "setting": "[2]; day 43 of study, 14 days after drug withdrawal, vehicle 22.9 ± 1.7, mean ± SEM", "value": "23.6 ± 1.2", "unit": "mmol/L"},
      {"measurement": "Plasma insulin", "setting": "[2]; day 43 of study, 14 days after drug withdrawal, vehicle 40.6 ± 8.6, mean ± SEM", "value": "77.1 ± 11.3", "unit": "ng/mL"},
      {"measurement": "Plasma insulin in ip glucose tolerance test (in words)", "setting": "[3]; 5 mg/kg/day po, after 5 weeks of treatment, D-glucose 2 g/kg ip, vs vehicle, P<0.05, FIG. 1", "value": "significant reductions"},
      {"measurement": "Plasma glucose in ip glucose tolerance test (in words)", "setting": "[3]; 5 mg/kg/day po, after 5 weeks of treatment, D-glucose 2 g/kg ip, vs vehicle, P<0.05, FIG. 2", "value": "significant reductions"},
      {"measurement": "Insulin hypoglycaemia test (in words)", "setting": "[3]; 5 mg/kg/day po, at 5 weeks, insulin 2.5 u/kg ip, vs vehicle, P<0.05, FIG. 3", "value": "Significant improvements"},
      {"measurement": "Body weight (in words)", "setting": "[3]; 5 mg/kg/day po, during 6 weeks of treatment, compared to vehicle", "value": "significant reduction"},
      {"measurement": "Plasma insulin (in words)", "setting": "[3]; 5 mg/kg/day po, during 6 weeks of treatment, non-fasted, compared to vehicle", "value": "significant reduction"},
      {"measurement": "Body weight (in words)", "setting": "[3]; [6]", "value": "remained significantly lower"},
      {"measurement": "Plasma insulin (in words)", "setting": "[3]; [6]", "value": "remained significantly lower"},
      {"measurement": "Uptake of 2DG, percentage change compared with control", "setting": "[1]; added insulin 10^−8 M, 24 hour incubation, compound 10^−8 M, insulin alone 149.9±4.3, mean±SEM", "value": "165.3±2.6", "unit": "%"}
    ]},
    {"smiles": "CNC(CC(C)C)C1(c2ccc(Cl)cc2)CCC1", "note": "(stereo not drawn) [N-{1-[1-(4-chlorophenyl)cyclobutyl]-3-methylbutyl}-N-methylamine]", "values": [
      {"measurement": "Uptake of 2DG, percentage change compared with control", "setting": "[1]; [4]", "value": "160.7±4.5", "unit": "%"}
    ]}
  ]
}
